Experimental data reported in article PMC5218480 (PLoS ONE, 2017).

Test system: MV-4-11 cells
Assay: Gene expression microarray analysis (Affymetrix PrimeView) and GSEA
Assay type: cell-based, human
Set-up: RFU PODN (11730768_x_at) / Fold change /veh PODN (11730768_x_at) / RFU LINC00158 (11744669_a_at) / Fold change /veh LINC00158 (11744669_a_at) / RFU DUSP10 (11751237_a_at) / Fold change /veh DUSP10 (11751237_a_at) / RFU ID3 (11757404_x_at) / Fold change /veh ID3 (11757404_x_at) / RFU PLEKHG5 (11737974_s_at) / Fold change /veh PLEKHG5 (11737974_s_at) / RFU LRRC4B (11730491_at) / Fold change /veh LRRC4B (11730491_at) / RFU GIMAP4 (11747438_a_at) / Fold change /veh GIMAP4 (11747438_a_at) / RFU KRT8 (11758183_x_at) / Fold change /veh KRT8 (11758183_x_at) / RFU CNN1 (11734310_a_at) / Fold change /veh CNN1 (11734310_a_at) / RFU VPS37D (11726825_at) / Fold change /veh VPS37D (11726825_at) / RFU C10orf10 (11716522_x_at) / Fold change /veh C10orf10 (11716522_x_at) / RFU KIR2DL2 /// KIR2DL4 /// KIR2DL5A /// KIR2DL5B /// KIR2DS1 /// KIR2DS2 /// KIR2DS3 /// KIR2DS4 /// KIR3DL3 /// KIR3DL3 /// KIR3DS1 (11738374_at) / Fold change /veh KIR2DL2 /// KIR2DL4 /// KIR2DL5A /// KIR2DL5B /// KIR2DS1 /// KIR2DS2 /// KIR2DS3 /// KIR2DS4 /// KIR3DL3 /// KIR3DL3 /// KIR3DS1 (11738374_at) / RFU C1QL1 (11718748_at) / Fold change /veh C1QL1 (11718748_at) / RFU TMPRSS4 (11747572_a_at) / Fold change /veh TMPRSS4 (11747572_a_at) / RFU HAMP (11756126_x_at) / Fold change /veh HAMP (11756126_x_at) / RFU RNFT2 (11725882_a_at) / Fold change /veh RNFT2 (11725882_a_at) / RFU NR4A2 (11747474_a_at) / Fold change /veh NR4A2 (11747474_a_at) / RFU ABCC12 (11746883_a_at) / Fold change /veh ABCC12 (11746883_a_at) / RFU TMEM136 (11760407_x_at) / Fold change /veh TMEM136 (11760407_x_at) / RFU CLDN22 /// WWC2 (11732394_at) / Fold change /veh CLDN22 /// WWC2 (11732394_at) / RFU HLA-DPB1 (11760878_x_at) / Fold change /veh HLA-DPB1 (11760878_x_at) / RFU SPINT1 (11716480_a_at) / Fold change /veh SPINT1 (11716480_a_at) / RFU GAP43 (11754022_s_at) / Fold change /veh GAP43 (11754022_s_at) / RFU A4GNT (11735810_at) / Fold change /veh A4GNT (11735810_at) / RFU PRB3 (11715151_x_at) / Fold change /veh PRB3 (11715151_x_at) / RFU TUBB4B (11761932_at) / Fold change /veh TUBB4B (11761932_at) / RFU CAPN14 (11732068_a_at) / Fold change /veh CAPN14 (11732068_a_at) / RFU TMCC2 (11721928_a_at) / Fold change /veh TMCC2 (11721928_a_at) / RFU IRGQ (11745062_a_at) / Fold change /veh IRGQ (11745062_a_at) / RFU FAM174B (11720279_a_at) / Fold change /veh FAM174B (11720279_a_at) / RFU TMPRSS4 (11748680_a_at) / Fold change /veh TMPRSS4 (11748680_a_at) / RFU FAM212B (11763350_a_at) / Fold change /veh FAM212B (11763350_a_at) / RFU PLEKHG5 (11743358_a_at) / Fold change /veh PLEKHG5 (11743358_a_at) / RFU ZSCAN30 (11745921_a_at) / Fold change /veh ZSCAN30 (11745921_a_at) / RFU CMKLR1 (11741424_a_at) / Fold change /veh CMKLR1 (11741424_a_at) / RFU LOC101060620 /// MAPK8IP1 (11723275_at) / Fold change /veh LOC101060620 /// MAPK8IP1 (11723275_at) / RFU SPTSSB (11747773_x_at) / Fold change /veh SPTSSB (11747773_x_at) / RFU PRSS12 (11739890_at) / Fold change /veh PRSS12 (11739890_at) / RFU BIN1 (11741810_x_at) / Fold change /veh BIN1 (11741810_x_at) / RFU WNT11 (11732464_a_at) / Fold change /veh WNT11 (11732464_a_at) / RFU C10orf10 (11716521_a_at) / Fold change /veh C10orf10 (11716521_a_at) / RFU C5orf56 (11738089_at) / Fold change /veh C5orf56 (11738089_at) / RFU CYB561 (11721691_x_at) / Fold change /veh CYB561 (11721691_x_at) / RFU ANKRD19P (11752326_a_at) / Fold change /veh ANKRD19P (11752326_a_at) / RFU OR2T12 /// OR2T33 /// OR2T8 (11738714_s_at) / Fold change /veh OR2T12 /// OR2T33 /// OR2T8 (11738714_s_at) / RFU VCAN (11748164_a_at) / Fold change /veh VCAN (11748164_a_at) / RFU JSRP1 (11732532_at) / Fold change /veh JSRP1 (11732532_at) / RFU KRTAP10-11 (11738290_x_at) / Fold change /veh KRTAP10-11 (11738290_x_at) / RFU MYO3A (11730013_a_at) / Fold change /veh MYO3A (11730013_a_at) / RFU EBF3 (11725865_a_at) / Fold change /veh EBF3 (11725865_a_at) / RFU CAMK2N1 (11719241_x_at) / Fold change /veh CAMK2N1 (11719241_x_at) / RFU C5orf56 (11738088_a_at) / Fold change /veh C5orf56 (11738088_a_at) / RFU OLFML3 (11715873_a_at) / Fold change /veh OLFML3 (11715873_a_at) / RFU LOC100653217 /// NTM (11731650_a_at) / Fold change /veh LOC100653217 /// NTM (11731650_a_at) / RFU MAPK11 (11762145_a_at) / Fold change /veh MAPK11 (11762145_a_at) / RFU FIZ1 (11724087_x_at) / Fold change /veh FIZ1 (11724087_x_at) / RFU OASL (11726364_x_at) / Fold change /veh OASL (11726364_x_at) / RFU SOX15 (11748057_x_at) / Fold change /veh SOX15 (11748057_x_at) / RFU CD79A (11719716_a_at) / Fold change /veh CD79A (11719716_a_at) / RFU HIST1H1D (11736915_at) / Fold change /veh HIST1H1D (11736915_at) / RFU CASKIN2 (11723855_a_at) / Fold change /veh CASKIN2 (11723855_a_at) / RFU LOC730098 (11760151_x_at) / Fold change /veh LOC730098 (11760151_x_at) / RFU OR4N2 (11742367_at) / Fold change /veh OR4N2 (11742367_at) / RFU PRRT2 (11749266_a_at) / Fold change /veh PRRT2 (11749266_a_at) / RFU SNX32 (11753110_a_at) / Fold change /veh SNX32 (11753110_a_at) / RFU CDHR5 (11726645_a_at) / Fold change /veh CDHR5 (11726645_a_at) / RFU RCAN1 (11760418_a_at) / Fold change /veh RCAN1 (11760418_a_at) / RFU FAM167A (11723789_a_at) / Fold change /veh FAM167A (11723789_a_at) / RFU FAM26E (11764081_at) / Fold change /veh FAM26E (11764081_at) / RFU ISYNA1 (11749810_s_at) / Fold change /veh ISYNA1 (11749810_s_at) / RFU ACY1 (11761880_at) / Fold change /veh ACY1 (11761880_at) / RFU 11764098_at / Fold change /veh 11764098_at / RFU SAMD14 (11745864_x_at) / Fold change /veh SAMD14 (11745864_x_at) / RFU NPB (11741838_a_at) / Fold change /veh NPB (11741838_a_at) / RFU TMPRSS6 (11731388_a_at) / Fold change /veh TMPRSS6 (11731388_a_at) / RFU KRTAP10-2 (11738614_at) / Fold change /veh KRTAP10-2 (11738614_at) / RFU ARHGAP8 /// PRR5-ARHGAP8 (11727945_x_at) / Fold change /veh ARHGAP8 /// PRR5-ARHGAP8 (11727945_x_at) / RFU KRTAP5-7 /// NADSYN1 (11734609_at) / Fold change /veh KRTAP5-7 /// NADSYN1 (11734609_at) / RFU RASL12 (11751679_a_at) / Fold change /veh RASL12 (11751679_a_at) / RFU CDKN2B (11736163_a_at) / Fold change /veh CDKN2B (11736163_a_at) / RFU PRF1 (11729649_at) / Fold change /veh PRF1 (11729649_at) / RFU, ZNF638 /// ZNF638-IT1 / Fold change vs veh, ZNF638 /// ZNF638-IT1 / RFU, PANK3 / Fold change vs veh, PANK3 / RFU, SH3YL1 / Fold change vs veh, SH3YL1 / RFU, ZEB2 / Fold change vs veh, ZEB2 / RFU, NRIP1 / Fold change vs veh, NRIP1 / RFU, PTTG1IP / Fold change vs veh, PTTG1IP / RFU, CAPN2 / Fold change vs veh, CAPN2 / RFU, MED14 / Fold change vs veh, MED14 / RFU, SNORA58 / Fold change vs veh, SNORA58 / RFU, C1orf63 / Fold change vs veh, C1orf63 / RFU, LRRFIP1 / Fold change vs veh, LRRFIP1 / RFU, NDUFAF7 / Fold change vs veh, NDUFAF7 / RFU, SLC12A2 / Fold change vs veh, SLC12A2 / RFU, IBTK / Fold change vs veh, IBTK / RFU, ESF1 / Fold change vs veh, ESF1 / Fold change vs veh, TMEM50B / RFU, TAOK1 / Fold change vs veh, TAOK1 / RFU, ACBD3 / Fold change vs veh, ACBD3 / RFU, TMA16 / Fold change vs veh, TMA16 / RFU, RWDD3 / Fold change vs veh, RWDD3 / RFU, BCAT1 / Fold change vs veh, BCAT1 / RFU, EDEM3 / Fold change vs veh, EDEM3 / RFU, TMEM33 / Fold change vs veh, TMEM33 / RFU, WDR75 / Fold change vs veh, WDR75 / RFU, AHCTF1 / Fold change vs veh, AHCTF1 / RFU, TFRC / Fold change vs veh, TFRC / RFU, ZDHHC17 / Fold change vs veh, ZDHHC17 / RFU, NOM1 / Fold change vs veh, NOM1 / RFU, ARL8B / Fold change vs veh, ARL8B / RFU, ZBTB11 / Fold change vs veh, ZBTB11 / RFU, TAMM41 / Fold change vs veh, TAMM41 / RFU, KIAA1704 /// LOC100996395 / Fold change vs veh, KIAA1704 /// LOC100996395 / RFU, ING1 / Fold change vs veh, ING1 / RFU, TRMT61B / Fold change vs veh, TRMT61B / RFU, FUBP3 / Fold change vs veh, FUBP3 / RFU, TP53 / Fold change vs veh, TP53 / RFU, TNKS2 / Fold change vs veh, TNKS2 / RFU, ZFP14 / Fold change vs veh, ZFP14 / RFU, ACTR2 / Fold change vs veh, ACTR2 / RFU, PPP3R1 / Fold change vs veh, PPP3R1 / RFU, PIK3R1 / Fold change vs veh, PIK3R1 / RFU, HNRNPA1 / Fold change vs veh, HNRNPA1 / RFU, RNF170 / Fold change vs veh, RNF170 / RFU, ZNF28 / Fold change vs veh, ZNF28 / RFU, RNGTT / Fold change vs veh, RNGTT / RFU, OGT / Fold change vs veh, OGT / RFU, BRD1 / Fold change vs veh, BRD1 / RFU, MARS / Fold change vs veh, MARS / RFU, ZNF655 / Fold change vs veh, ZNF655 / RFU, FAHD1 / Fold change vs veh, FAHD1 / RFU, BDP1 / Fold change vs veh, BDP1 / RFU, LRRCC1 / Fold change vs veh, LRRCC1 / RFU, ARID1A / Fold change vs veh, ARID1A / RFU, ZNF146 / Fold change vs veh, ZNF146 / RFU, ZNF330 / Fold change vs veh, ZNF330 / RFU, GPN3 / Fold change vs veh, GPN3 / RFU, C9orf123 / Fold change vs veh, C9orf123 / RFU, N4BP2L2 / Fold change vs veh, N4BP2L2 / RFU, ARFIP1 / Fold change vs veh, ARFIP1 / RFU, FAM179B / Fold change vs veh, FAM179B / RFU, BCL10 / Fold change vs veh, BCL10 / RFU, UHRF1BP1L / Fold change vs veh, UHRF1BP1L / RFU, BET1 / Fold change vs veh, BET1 / RFU, CNOT2 / Fold change vs veh, CNOT2 / RFU, ZNF268 / Fold change vs veh, ZNF268 / Fold change vs veh, ZNF507 / RFU, DGCR2 / Fold change vs veh, DGCR2 / RFU, WDSUB1 / Fold change vs veh, WDSUB1 / Fold change vs veh, HSP90B1 /// MIR3652 / RFU, ADSS / Fold change vs veh, ADSS / RFU, GK / Fold change vs veh, GK / RFU, ZNF148 / Fold change vs veh, ZNF148 / RFU, TAF9 / Fold change vs veh, TAF9 / RFU, SLC1A5 / Fold change vs veh, SLC1A5 / RFU, SLMO2 / Fold change vs veh, SLMO2 / RFU, ABCC4 / Fold change vs veh, ABCC4 / RFU, LOC101060439 /// RAP1B / Fold change vs veh, LOC101060439 /// RAP1B / RFU, RFX7 / Fold change vs veh, RFX7 / RFU, GTPBP10 / Fold change vs veh, GTPBP10 / RFU, CNEP1R1 / Fold change vs veh, CNEP1R1 / RFU, BIVM-ERCC5 /// ERCC5 / Fold change vs veh, BIVM-ERCC5 /// ERCC5 / RFU, ILF3 / Fold change vs veh, ILF3 / RFU 11762660_at / Fold change /veh 11762660_at / RFU VCAN (11757783_s_at) / Fold change /veh VCAN (11757783_s_at) / RFU DDX43 (11728927_at) / Fold change /veh DDX43 (11728927_at) / RFU KRT8 (11758188_x_at) / Fold change /veh KRT8 (11758188_x_at) / RFU NKD1 (11759106_at) / Fold change /veh NKD1 (11759106_at) / RFU SRD5A1 (11742802_a_at) / Fold change /veh SRD5A1 (11742802_a_at) / RFU TPSAB1 /// TPSB2 (11721975_s_at) / Fold change /veh TPSAB1 /// TPSB2 (11721975_s_at) / RFU GSTM3 (11746129_a_at) / Fold change /veh GSTM3 (11746129_a_at) / RFU IL23R (11737362_x_at) / Fold change /veh IL23R (11737362_x_at) / RFU TMEM51 (11727254_a_at) / Fold change /veh TMEM51 (11727254_a_at) / RFU PIWIL2 (11732686_x_at) / Fold change /veh PIWIL2 (11732686_x_at) / RFU ORM1 (11744905_x_at) / Fold change /veh ORM1 (11744905_x_at) / RFU CCDC152 (11743942_at) / Fold change /veh CCDC152 (11743942_at) / RFU ECM1 (11717891_a_at) / Fold change /veh ECM1 (11717891_a_at) / RFU IL23R (11748794_a_at) / Fold change /veh IL23R (11748794_a_at) / RFU TNFAIP8L3 (11732012_x_at) / Fold change /veh TNFAIP8L3 (11732012_x_at) / RFU MBOAT4 (11741988_at) / Fold change /veh MBOAT4 (11741988_at) / RFU 11764193_at / Fold change /veh 11764193_at / RFU TMEM53 (11763286_at) / Fold change /veh TMEM53 (11763286_at) / RFU MAGEB2 (11727129_at) / Fold change /veh MAGEB2 (11727129_at) / RFU TMEM200A (11744735_a_at) / Fold change /veh TMEM200A (11744735_a_at) / RFU CCDC152 (11751479_a_at) / Fold change /veh CCDC152 (11751479_a_at) / RFU FAM211A (11726209_a_at) / Fold change /veh FAM211A (11726209_a_at) / RFU RGS16 (11746705_a_at) / Fold change /veh RGS16 (11746705_a_at) / RFU VCAN (11755009_s_at) / Fold change /veh VCAN (11755009_s_at) / RFU RHOB (11743442_s_at) / Fold change /veh RHOB (11743442_s_at) / RFU RGS16 (11720943_a_at) / Fold change /veh RGS16 (11720943_a_at) / RFU RGS16 (11720944_at) / Fold change /veh RGS16 (11720944_at) / RFU, VPS4B / Fold change vs veh, VPS4B / RFU, CREB1 / Fold change vs veh, CREB1 / RFU, DNAJC13 / Fold change vs veh, DNAJC13 / RFU, GNAQ / Fold change vs veh, GNAQ / RFU, CDK5R1 / Fold change vs veh, CDK5R1 / RFU, ZRANB3 / Fold change vs veh, ZRANB3 / RFU, CUL4A / Fold change vs veh, CUL4A / RFU, CCNY / Fold change vs veh, CCNY / RFU, UFL1 / Fold change vs veh, UFL1 / RFU, COG3 / Fold change vs veh, COG3 / RFU, DIAPH2 / Fold change vs veh, DIAPH2 / RFU, SKA2 / Fold change vs veh, SKA2 / RFU, AFF3 / Fold change vs veh, AFF3 / RFU, LMF1 / Fold change vs veh, LMF1 / RFU, IPO11 / Fold change vs veh, IPO11 / RFU, DFFB / Fold change vs veh, DFFB / RFU, FOXP1 / Fold change vs veh, FOXP1 / RFU, CARD8 / Fold change vs veh, CARD8 / RFU, STRN3 / Fold change vs veh, STRN3 / RFU, ADK / Fold change vs veh, ADK / RFU, RASSF2 / Fold change vs veh, RASSF2 / RFU, WIPF1 / Fold change vs veh, WIPF1 / RFU, LARP1B / Fold change vs veh, LARP1B / RFU, RASA1 / Fold change vs veh, RASA1 / RFU, RB1 / Fold change vs veh, RB1 / RFU, PPFIA1 / Fold change vs veh, PPFIA1 / RFU, MAT2A / Fold change vs veh, MAT2A / RFU, CCT5 / Fold change vs veh, CCT5 / RFU, WDR92 / Fold change vs veh, WDR92 / RFU, CUX1 / Fold change vs veh, CUX1 / RFU, TTC7A / Fold change vs veh, TTC7A / RFU, TMEM135 / Fold change vs veh, TMEM135 / RFU, DEPTOR / Fold change vs veh, DEPTOR / RFU, CPM / Fold change vs veh, CPM / RFU, DNAJB6 / Fold change vs veh, DNAJB6 / RFU, CACNA2D3 / Fold change vs veh, CACNA2D3 / RFU, DTX4 / Fold change vs veh, DTX4 / RFU, TFCP2 / Fold change vs veh, TFCP2 / RFU, GMCL1 /// GMCL1P1 / Fold change vs veh, GMCL1 /// GMCL1P1 / RFU, AEBP2 / Fold change vs veh, AEBP2 / RFU, SNHG1 /// SNORD22 /// SNORD25 /// SNORD26 /// SNORD27 /// SNORD28 /// SNORD29 /// SNORD31 / Fold change vs veh, SNHG1 /// SNORD22 /// SNORD25 /// SNORD26 /// SNORD27 /// SNORD28 /// SNORD29 /// SNORD31 / Fold change (Aza/veh), C12orf56 (ProbeSet 11735607_a_at) / Fold change (ACY-1035/veh), C12orf56 (ProbeSet 11735607_a_at) / Fold change (Aza/veh), FGFR1OP (ProbeSet 11751329_s_at) / Fold change (ACY-1035/veh), FGFR1OP (ProbeSet 11751329_s_at) / Fold change (Aza/veh), VPS36 (ProbeSet 11739960_a_at) / Fold change (ACY-1035/veh), VPS36 (ProbeSet 11739960_a_at) / RFU SYPL1 (11715823_x_at) / Fold change /veh SYPL1 (11715823_x_at) / RFU IGFBP7 (11715501_s_at) / Fold change /veh IGFBP7 (11715501_s_at) / RFU REEP3 (11722064_at) / Fold change /veh REEP3 (11722064_at) / RFU IGLL1 (11728026_x_at) / Fold change /veh IGLL1 (11728026_x_at): dose or concentration left out as unconfirmed
Conditions: ProbeSet 11716891_at; LIST B

SMILES: Nc1ncn([C@@H]2O[C@H](CO)[C@@H](O)[C@H]2O)c(=O)n1 [azacitidine]
- Fold change vs veh, C9orf123: 1.12
